Patent US8513232B2, “Substituted spirocyclic piperidine derivatives as histamine-3 (H3) receptor ligands” (Cephalon, Inc., priority 2008, dated 2013)

Assays:
human H3 receptor = molecular target: T1, human H3 receptor (Homo sapiens, UniProt Q9Y5N1); assay: Human H3 radioligand binding ([3H]-N-alpha-methylhistamine, SPA); details: read-out: Human H3 Ki
T1 construct: expressed in transfected cells
Summary of the method: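 Compounds (0.01 nM-30 μM) competed with approximately 1 nM [3H]-N-alpha-methylhistamine for human H3 receptor in membranes of stably transfected CHO cells, 10 μg protein per well, in Tris-HCl pH 7.4/MgCl2/BSA buffer for 4 h at room temperature. Bound radioligand measured by scintillation proximity; 10 μM clobenpropit gave non-specific binding.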

[1] = molecular target: T2, rat histamine H3 receptor (Rattus norvegicus, UniProt Q9QYN8); assay: Rat H3 radioligand binding ([3H]-N-alpha-methylhistamine, SPA); details: read-out: Rat H3 kI
T2 construct: encoding the entire 445-amino-acid rat histamine H3 receptor; expressed in transfected cells; membrane preparation
Summary of the method: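 SPA-bead binding assay using [3H]-N-alpha-methylhistamine (approximately 1 nM final) with test compounds from 0.01 nM to 30 μM. Rat H3 receptor membranes came from stably transfected CHO-A3 cells; incubation ran 4 h at room temperature, in the dark, in Tris pH 7.4 buffer with MgCl2 and BSA. Clobenpropit (10 μM) gave non-specific binding.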

T1 sequence (Q9Y5N1 whole entry): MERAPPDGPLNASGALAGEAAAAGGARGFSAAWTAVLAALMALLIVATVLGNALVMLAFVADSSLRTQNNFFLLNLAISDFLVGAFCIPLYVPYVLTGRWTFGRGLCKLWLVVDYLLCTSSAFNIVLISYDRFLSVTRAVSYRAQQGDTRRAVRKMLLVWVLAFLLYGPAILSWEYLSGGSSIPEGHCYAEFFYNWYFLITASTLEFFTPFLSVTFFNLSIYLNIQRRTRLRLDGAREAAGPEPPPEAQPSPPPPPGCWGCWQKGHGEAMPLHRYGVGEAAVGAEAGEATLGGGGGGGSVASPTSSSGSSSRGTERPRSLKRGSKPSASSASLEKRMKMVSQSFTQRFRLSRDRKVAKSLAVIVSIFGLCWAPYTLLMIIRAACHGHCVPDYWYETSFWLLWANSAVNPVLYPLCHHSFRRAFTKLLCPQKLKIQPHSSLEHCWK
T2 sequence (Q9QYN8 whole entry): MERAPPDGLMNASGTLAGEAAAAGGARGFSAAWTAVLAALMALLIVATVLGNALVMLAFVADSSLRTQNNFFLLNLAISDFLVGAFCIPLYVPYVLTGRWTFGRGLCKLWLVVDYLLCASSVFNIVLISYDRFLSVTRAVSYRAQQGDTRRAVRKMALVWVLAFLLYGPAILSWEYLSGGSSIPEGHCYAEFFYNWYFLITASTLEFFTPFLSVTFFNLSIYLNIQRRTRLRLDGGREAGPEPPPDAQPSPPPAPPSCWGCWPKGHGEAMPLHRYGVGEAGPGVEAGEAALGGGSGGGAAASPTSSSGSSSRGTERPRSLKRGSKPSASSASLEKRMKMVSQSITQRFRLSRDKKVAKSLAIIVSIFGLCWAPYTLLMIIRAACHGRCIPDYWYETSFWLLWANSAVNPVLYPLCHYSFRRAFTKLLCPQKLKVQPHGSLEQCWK

| Ki (human H3 receptor) [nM] | melting point [°C] | Ki [1] [nM] | Compound |
| --- | --- | --- | --- |
| < 200 | 157 to 159 | < 200 | O=C(C1CC(O)(c2ccc3c(c2)COC2(CCN(C4CCC4)CC2)O3)C1)N1CCCC1 (stereo not drawn) [Example 482] |
| < 200 | 100 to 102 | < 200 | COc1ccnc(-c2ccc3c(c2)COC2(CCN(C4CCC4)CC2)O3)n1 [Example 483] |
| < 200 | 284 to 286 | < 200 | O=c1ccc(Oc2ccc3c(c2)CCC2(CCN(C4CCC4)CC2)O3)c[nH]1 [Example 485] |
| < 200 | 125 to 127 | < 200 | COc1cc(Oc2ccc3c(c2)CCC2(CCN(C4CCC4)CC2)O3)ccn1 [Example 486] |
| < 200 | 263 to 265 | < 200 | CCOC(=O)C1CC=C(c2ccc3c(c2)COC2(CCN(C4CCC4)CC2)O3)CC1 (stereo not drawn) [Example 487] |
| < 200 | 167 to 169 | < 200 | O=c1[nH]cccc1-c1ccc2c(c1)COC1(CCN(C3CCC3)CC1)O2 [Example 488] |
| < 200 | 210 to 211 | < 200 | O=S1(=O)CCC(c2ccc3c(c2)COC2(CCN(C4CCC4)CC2)O3)CC1 [Example 489] |
| < 200 | 252 to 254 | < 200 | O=S1(=O)CCC(Oc2ccc3c(c2)CCC2(CCN(C4CCC4)CC2)O3)C1 (stereo not drawn) [Example 490] |
| < 200 | 151 to 152 | < 200 | O=S1(=O)CCC(c2ccc3c(c2)COC2(CCN(C4CCC4)CC2)O3)C1 (stereo not drawn) [Example 491] |
| < 200 | 191 to 192 | < 200 | OC1(c2ccc3c(c2)COC2(CCN(C4CCC4)CC2)O3)CCC2(CC1)OCCO2 [Example 492] |
| < 200 | 186 to 188 | < 200 | O=c1cc(Oc2ccc3c(c2)CCC2(CCN(C4CCC4)CC2)O3)cc[nH]1 [Example 493] |
| < 200 | 246 to 248 | < 200 | CNC(=O)C1CC(O)(c2ccc3c(c2)COC2(CCN(C4CCC4)CC2)O3)C1 (stereo not drawn) [Example 494] |
| < 200 | 259 to 261 | < 200 | O=c1ncc(Oc2ccc3c(c2)CCC2(CCN(C4CCC4)CC2)O3)c[nH]1 [Example 495] |
| < 200 | 85 to 90 | < 200 | OC(c1ccc2c(c1)COC1(CCN(C3CCC3)CC1)O2)C1CCSCC1 (stereo not drawn) [Example 496] |
| < 200 | 153 to 155 | < 200 | O=C1CC=C(c2ccc3c(c2)COC2(CCN(C4CCC4)CC2)O3)CC1 [Example 497] |
| < 200 | 150 to 153 | < 200 | OC1CCC(c2ccc3c(c2)COC2(CCN(C4CCC4)CC2)O3)CC1 (stereo not drawn) [Example 498] |
| < 200 | 117 to 118 | < 200 | c1cc2c(cc1OCC1CCSCC1)CCC1(CCN(C3CCC3)CC1)O2 [Example 499] |
| < 200 | 64 to 66 | < 200 | OC1(c2ccc3c(c2)COC2(CCN(C4CCC4)CC2)O3)CCC1 [Example 501] |
| < 200 | 144 to 146 | < 200 | COc1ccc(/C=C/c2ccc3c(c2)COC2(CCN(C4CCC4)CC2)O3)cn1 [Example 502] |
| < 200 | 227 to 229 | < 200 | COc1ncc(Oc2ccc3c(c2)CCC2(CCN(C4CCC4)CC2)O3)cn1 [Example 503] |
| < 200 | 78 to 80 | < 200 | COc1ccc(C(O)c2ccc3c(c2)COC2(CCN(C4CCC4)CC2)O3)cn1 (stereo not drawn) [Example 504] |
| < 200 | 180 to 183 | < 200 | OC1(c2ccc3c(c2)COC2(CCN(C4CCC4)CC2)O3)COC1 [Example 505] |
| < 200 | 50 | < 200 | OC1(c2ccc3c(c2)COC2(CCN(C4CCC4)CC2)O3)CCOC1 (stereo not drawn) [Example 506] |
| < 200 | 249 to 250 | < 200 | c1cc2c(cc1C1CCOC1)COC1(CCN(C3CCC3)CC1)O2 (stereo not drawn) [Example 507] |
| < 200 | 79 to 81 | < 200 | OC(c1ccc(Cl)nc1)c1ccc2c(c1)COC1(CCN(C3CCC3)CC1)O2 (stereo not drawn) [Example 508] |
| < 200 | 149 to 151 | < 200 | OC1(c2ccc3c(c2)COC2(CCN(C4CCC4)CC2)O3)CCCC1 [Example 509] |

| Ki (human H3 receptor) [nM] | melting point [°C] | Ki [1] [nM] | Compound |
| --- | --- | --- | --- |
| < 200 | 168 to 170 | < 200 | COc1ccc(/C=C/c2ccc3c(c2)COC2(CCN(C4CCC4)CC2)O3)nn1 [Example 510] |
| < 200 | 127 to 129 | < 200 | O=S1(=O)CCC(C(O)c2ccc3c(c2)COC2(CCN(C4CCC4)CC2)O3)CC1 (stereo not drawn) [Example 511] |
| < 200 | 164 to 165 | < 200 | OC1(c2ccc3c(c2)COC2(CCN(C4CCC4)CC2)O3)CCCCC1 [Example 512] |
| < 200 | 58 to 62 | < 200 | OC(c1ccc(F)cc1)c1ccc2c(c1)COC1(CCN(C3CCC3)CC1)O2 (stereo not drawn) [Example 513] |
| < 200 | 195 to 196 | < 200 | CCNC(=O)C1CCC(O)(c2ccc3c(c2)COC2(CCN(C4CCC4)CC2)O3)CC1 (stereo not drawn) [Example 514] |
| < 200 | 194 to 196 | < 200 | COCCN1CC(COc2ccc3c(c2)CCC2(CCN(C4CCC4)CC2)O3)CC1=O (stereo not drawn) [Example 515] |
| < 200 | 229 to 231 | < 200 | COc1ccc(Cc2ccc3c(c2)COC2(CCN(C4CCC4)CC2)O3)cn1 [Example 516] |
| < 200 | 240 to 241 | < 200 | O=S1(=O)CCC(O)(c2ccc3c(c2)COC2(CCN(C4CCC4)CC2)O3)CC1 [Example 517] |
| < 200 | 234 to 236 | < 200 | CN1CC(COc2ccc3c(c2)CCC2(CCN(C4CCC4)CC2)O3)CC1=O (stereo not drawn) [Example 519] |
| < 200 | 128 to 132 | < 200 | OC1CC=C(c2ccc3c(c2)COC2(CCN(C4CCC4)CC2)O3)CC1 (stereo not drawn) [Example 525] |
| < 200 | 217 to 219 | < 200 | O=c1ccc(C(O)c2ccc3c(c2)COC2(CCN(C4CCC4)CC2)O3)c[nH]1 (stereo not drawn) [Example 526] |
| < 200 | 194 to 196 | < 200 | O=c1ccc(Cc2ccc3c(c2)COC2(CCN(C4CCC4)CC2)O3)c[nH]1 [Example 527] |
| < 200 | 183 to 185 | < 200 | O=c1ccc(CCc2ccc3c(c2)COC2(CCN(C4CCC4)CC2)O3)c[nH]1 [Example 528] |
| < 200 | 139 to 141 | 200 to 1000 | c1ccc(COc2ccc(-c3ccc4c(c3)COC3(CCN(C5CCC5)CC3)O4)cn2)cc1 [Example 529] |
| < 200 | 233 to 235 | < 200 | O=C1CCC(c2ccc3c(c2)COC2(CCN(C4CCC4)CC2)O3)CN1 (stereo not drawn) [Example 530] |
| < 200 | 113 to 115 | < 200 | OC1CCC(c2ccc3c(c2)COC2(CCN(C4CCC4)CC2)O3)CC1 (stereo not drawn) [Example 531] |
| < 200 | 146 to 148 | < 200 | OC1(c2ccc3c(c2)CCC2(CCN(C4CCC4)CC2)O3)CCSCC1 [Example 532] |
| < 200 | 115 to 117 | < 200 | c1ccc(COc2ccc(-c3ccc4c(c3)CCC3(CCN(C5CCC5)CC3)O4)cn2)cc1 [Example 533] |
| < 200 | 292 to 294 | < 200 | O=C1CCC(c2ccc3c(c2)CCC2(CCN(C4CCC4)CC2)O3)CN1 (stereo not drawn) [Example 534] |
| < 200 | 213 to 215 | < 200 | O=S1(=O)CCC(O)(c2ccc3c(c2)CCC2(CCN(C4CCC4)CC2)O3)CC1 [Example 535] |
| < 200 | 148 to 150 | < 200 | OC(c1ccc2c(c1)COC1(CCN(C3CCC3)CC1)O2)C1CCCC1 (stereo not drawn) [Example 536] |
| 200 to 1000 | 236 to 238 | > 1000 | C(=C\c1ccc2c(c1)CCC1(CCN(C3CCC3)CC1)O2)/c1ccc(OCc2ccccc2)nc1 [Example 537] |
| < 200 | 219 to 221 | < 200 | O=C1CCC(Cc2ccc3c(c2)COC2(CCN(C4CCC4)CC2)O3)CN1 (stereo not drawn) [Example 539] |
| < 200 | 72 to 74 | < 200 | CC(=O)OC1(c2ccc3c(c2)COC2(CCN(C4CCC4)CC2)O3)CC(C(=O)N2CCCC2)C1 (stereo not drawn) [Example 541] |
| < 200 | 199 to 201 | < 200 | COC1(c2ccc3c(c2)COC2(CCN(C4CCC4)CC2)O3)CCS(=O)(=O)CC1 [Example 542] |
| < 200 | 239 to 240 | 200 to 1000 | Cc1cc2c(cc1-c1ccc(=O)[nH]c1)COC1(CCN(C3CCC3)CC1)O2 [Example 543] |
